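Values below derive from 48-hour exposures of cells grown in 96-well plates, with endpoints linearly interpolated between the two concentrations bracketing the appropriate inhibition level. GI50 = concentration required for 50% inhibition of growth. TGI denotes the concentration required for complete inhibition of growth.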
Experiments:
Test in all cases: NCI tumour cell line growth inhibition, 48 h
UACC-62 melanoma = test system: UACC-62 melanoma
HS 578T breast = test system: HS 578T breast
DU-145 prostate = test system: DU-145 prostate
MDA-MB-435 = test system: MDA-MB-435
SK-MEL-28 melanoma = test system: SK-MEL-28 melanoma
KM12 colon = test system: KM12 colon
T-47D breast = test system: T-47D breast
MALME-3M melanoma = test system: MALME-3M melanoma
UO-31 renal = test system: UO-31 renal
PC-3 prostate = test system: PC-3 prostate

| Compound | GI50 (UACC-62 melanoma) | TGI (UACC-62 melanoma) | GI50 (HS 578T breast) | TGI (HS 578T breast) | GI50 (DU-145 prostate) | TGI (DU-145 prostate) | GI50 (MDA-MB-435) | TGI (MDA-MB-435) | GI50 (SK-MEL-28 melanoma) | TGI (SK-MEL-28 melanoma) | GI50 (KM12 colon) | TGI (KM12 colon) | GI50 (T-47D breast) | TGI (T-47D breast) | GI50 (MALME-3M melanoma) | TGI (MALME-3M melanoma) | GI50 (UO-31 renal) | TGI (UO-31 renal) | GI50 (PC-3 prostate) | TGI (PC-3 prostate) |
| --- | --- | --- | --- | --- | --- | --- | --- | --- | --- | --- | --- | --- | --- | --- | --- | --- | --- | --- | --- | --- |
| OCC(O)C(O)C(O)C(O)c1nnc2c(-c3ccccc3)nc3ccccc3n12 (stereo not given) | > 100 µM | > 100 µM | 57.9 µM | > 100 µM | > 100 µM | > 100 µM | > 100 µM | > 100 µM | > 100 µM | > 100 µM | > 100 µM | > 100 µM | 28.6 µM | > 100 µM | 38.7 µM | > 100 µM | > 100 µM | > 100 µM | 43.2 µM | > 100 µM |
| CC(O)[C@H](NC(=O)N[C@@H](CC(N)=O)c1nc(N2CCNCC2)no1)C(=O)O (stereo not given in full) | > 100 µM | > 100 µM | > 100 µM | > 100 µM | > 100 µM | > 100 µM | > 100 µM | > 100 µM | > 100 µM | > 100 µM | > 100 µM | > 100 µM | > 100 µM | > 100 µM | > 100 µM | > 100 µM | > 100 µM | > 100 µM | > 100 µM | > 100 µM |
| Cc1cc(S(N)(=O)=O)c(S/C(=N\NS(=O)(=O)c2ccccc2)c2ccc(Cl)cc2)cc1Cl | > 100 µM | > 100 µM | 39.8 µM | > 100 µM | > 100 µM | > 100 µM | > 100 µM | > 100 µM | > 100 µM | > 100 µM | > 100 µM | > 100 µM | > 100 µM | > 100 µM | 65.4 µM | > 100 µM | > 100 µM | > 100 µM | 38.9 µM | > 100 µM |
| COc1ccc(-c2c(N)noc2-c2cc(OC)c3c(c2)OCCO3)cc1 | < 0.01 µM | 28.2 µM | < 0.0106 µM | > 100 µM | 0.0202 µM | 0.193 µM | < 0.01 µM | 0.0102 µM | 0.026 µM | > 100 µM | < 0.01 µM | 3.8 µM | 0.64 µM | 41.2 µM | 23.6 µM | > 100 µM | < 0.024 µM | 56.9 µM | < 0.0157 µM | > 40.7 µM |
| COc1cccc(-c2nc3sccn3c2-c2ccnc(NCCCNS(=O)(=O)c3ccccc3)c2)c1 | 1.98 µM | 5.08 µM | 3.51 µM | > 100 µM | 3.14 µM | > 100 µM | 3.53 µM | > 100 µM | 3.59 µM | > 100 µM | 2.97 µM | > 100 µM | 1.73 µM | 6.24 µM | 2.59 µM | 9.73 µM | 2.07 µM | > 100 µM | 1.97 µM | 6.3 µM |
| CCCCCC[C@H]1C(=O)O[C@H](C)[C@H](NC(=O)c2cccc(NC=O)c2OC)C(=O)O[C@@H](C)[C@@H]1OC(=O)CCC (tested in a mixture with another compound) | 6.54 µM | 21.2 µM | 13.1 µM | 38.6 µM | 11.7 µM | 30.1 µM | 9.6 µM | 27.9 µM | 16.2 µM | 33.3 µM | 9.77 µM | 31.4 µM | 11.2 µM | 35.5 µM | 15.3 µM | 41.2 µM | 13.2 µM | 29.3 µM | 6.23 µM | 26.7 µM |
| C=CC(=O)Nc1cc2c(Nc3ccc(F)c(Cl)c3)ncnc2cc1C#CC(C)(C)N1CCN(C)CC1 | 2.94 µM | 5.58 µM | 2.28 µM | 8.47 µM | 1.11 µM | 4.86 µM | 1.5 µM | 3.9 µM | 3.1 µM | 5.67 µM | 2.36 µM | 5.75 µM | 0.752 µM | 5.32 µM | 1.49 µM | 5.05 µM | 0.244 µM | 4.4 µM | 1.93 µM | 5.31 µM |
| O=[N+]([O-])/C=C/c1ccc(Cl)cc1[N+](=O)[O-] | 1.55 µM | 3.64 µM | 8.16 µM | > 100 µM | 2.52 µM | 5.49 µM | 3.62 µM | 16.1 µM | 14 µM | 27.7 µM | 3.09 µM | > 100 µM | 2.48 µM | 5.96 µM | 4.15 µM | 16.7 µM | 1.55 µM | 3.82 µM | 2.54 µM | 8.34 µM |
| CC(=O)Oc1cc2cnc3c4cc(OC(C)=O)c(OC(C)=O)cc4ccc3c2cc1OC(C)=O | 0.979 µM | 3.26 µM | 1.01 µM | 9.56 µM | 2.61 µM | > 100 µM | 0.506 µM | > 100 µM | 3.15 µM | > 100 µM | 2.47 µM | > 100 µM | 0.898 µM | > 100 µM | 1.55 µM | 9.33 µM | 0.472 µM | > 100 µM | 3.27 µM | > 100 µM |
| CS(=O)(=O)Nc1cc(-c2ccc3ncnc(Nc4cccc(Cl)c4)c3c2)cnc1Cl | 0.202 µM | 1.26 µM | 0.088 µM | 0.782 µM | 0.455 µM | 10.3 µM | 0.418 µM | 2.67 µM | 0.3 µM | 4.75 µM | 1.03 µM | 5.11 µM | 0.0237 µM | 0.635 µM | 0.0985 µM | 0.82 µM | 0.105 µM | 1.86 µM | 0.288 µM | 11.5 µM |
| O=C1Nc2ccc3c(c2/C1=C\c1cc2c(cc1Br)OCO2)OCO3 | 0.359 µM | 3.23 µM | 0.376 µM | 2.11 µM | 0.49 µM | 2.11 µM | 0.106 µM | 0.305 µM | 0.911 µM | 5.32 µM | 0.307 µM | 1.43 µM | 0.969 µM | 6.58 µM | 0.423 µM | 4.16 µM | 0.191 µM | 2.13 µM | 0.338 µM | 2.8 µM |

— PubChem BioAssay (NCI)
